According to publication PMC3681555, “PPARγ as a sensor of lipase activity and a target for the lipase inhibitor orlistat” (Lipids in Health and Disease, 2013):
pIC50: −log10 of the molar value.

Legend:
PPARγ [1] = target: T1, PPARγ (Homo sapiens, UniProt P37231); assay: competitive fluorescence polarization (PolarScreen PPARγ green kit); LC-MS shows no covalent adduct; type: binding
T1 construct: gene PPARG
T1 sequence (P37231 235-505 limits assumed): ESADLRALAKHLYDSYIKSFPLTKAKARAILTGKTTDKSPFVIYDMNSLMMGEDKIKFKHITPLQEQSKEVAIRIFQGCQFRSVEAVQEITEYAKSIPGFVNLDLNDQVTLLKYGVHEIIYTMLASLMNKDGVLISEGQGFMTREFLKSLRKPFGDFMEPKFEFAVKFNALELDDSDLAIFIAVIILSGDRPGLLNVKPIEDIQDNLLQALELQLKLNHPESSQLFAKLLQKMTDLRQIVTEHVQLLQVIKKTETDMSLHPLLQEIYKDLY

PPARγ [2] = target: T1, PPARγ; assay: intact-protein LC-ESI-MS, covalent control (data not shown); type: binding

Row | SMILES | pIC50 (PPARγ [1]) | intact-protein LC-ESI-MS, covalent control (data not shown) (PPARγ [2])
1 | CCCCCCCCCCC[C@@H](C[C@@H]1OC(=O)[C@H]1CCCCCC)OC(=O)[C@H](CC(C)C)NC=O [Orlistat] | 5.55 | –
2 | O=C(Nc1ccccc1)c1cc([N+](=O)[O-])ccc1Cl [GW9662] | – | Dithio-bis (2-nitrobenzoic acid) and GW9662, were also confirmed bind to PPARγ irreversibly (data not shown)
